According to patent US9273338B2, “Chimeric avian-based screening system containing mammalian grafts” (priority 2004, dated 2016):

Assays:
[1] = tested on: Langerhans cells (LC) in human skin explants cultivated on the CAM; assay: Activation and mobilization of Langerhans cells in human skin grafts on the CAM (CD1a staining); format: in vivo
Method: Excess fat was manually removed from human skin obtained within 2 hours of surgery. The skin was cut into rectangular/square pieces approximately 7-10 mm on each side and stored on a cold plate at 15° C. in saline. Eggs with an artificial air sac were opened with iris scissors in a sterile hood. The ectodermal surface of the CAM was abraded by touching it briefly with a sterile piece of lens tissue to improve the adherence of the graft. The skin was then gently place on the CAM and stretched out. The eggs were then sealed with scotch tape, and returned to the incubator.
Two-three days after grafting the skin, the eggs were re-opened, and the grafts are evaluated visually for viability. Eggs containing skin that has yellowed or that looks obviously infected were discarded. A plastic ring just smaller than the skin was placed on the graft in order to prevent leakage of the test substance away from the skin, using Vaseline to seal it down. Then, a 50 μl drop of the tested substance was placed on the skin, and the egg was re-sealed and incubated for another 6 hours-5 days. At the end of the re-incubation, the skin was removed from the CAM and prepared for paraffin histology. […]
All the microscopic 400 μm-fields in triplicate sections from each skin sample were counted with a 40× objective. The average number of cells per field was then determined and averaged for that skin sample. […]

[2] = tested on: human skin grafted onto the CAM of a fertilized egg; assay: Human skin irritation quantified with the skin-CAM system; format: in vivo
Method: FIGS. 2B and 2C quantitate the change in epidermal thickness of CAM-grafted and organ culture-maintained human skin. Epidermal thickness was measured using digital photos, by tracing the epidermis with a digitizing pad and determining area using the public domain scientific imaging software ImageJ (http://rsb.info.nih.gov/ij/). Size bars represent 0.05 mm
Punch biopsies of human skin were grafted onto the CAM of a fertilized egg as described in Example 1. The human skin samples were allowed to incubate for 2 days after grafting in order to allow for the skin to incorporate, and then the adhesive tape sealing of the samples was reopened. The detergent sodium dodecylsulfate (SDS) was applied to different skin samples at different concentrations topically using a small plastic ring cut from a pipette tip keep the irritant in place. The skin samples were then resealed and returned to the incubator for an addition three days, whereupon they underwent routine histological and immunochemical analysis using Abs for the proliferation marker PCNA. PCNA^+ cells were counted in several sections, and the length of the epidermis in the section measured. Results are expressed as PCNA^+ cells/mm.

Molecule: O=[N+]([O-])c1ccc(F)c([N+](=O)[O-])c1 [DNFB, dinitrofluorobenzene]
- CD1a+ LC in the epidermis ([1]; overnight (O/N) incubation, compared to untreated skin fixed immediately or O/N acetone/olive oil (solvent) treated skin, FIG. 9): significant decrease

Molecule: CCCCCCCCCCCCOS(=O)(=O)[O-].[Na+] [SDS, sodium dodecylsulfate]
- epidermal thickness ([2]; topical SDS treatment, FIG. 3B): no significant differences in epidermal thickness
- epidermal proliferation (PCNA+ cells/mm) ([2]; topical SDS, 1% and 2.5% produce similar results, 3 days after treatment, p<0.05, FIG. 3A): significantly increases epidermal proliferation

B1: LT: lymphotoxin (LT) (protein, UniProt P01374 35-205, looked up)
Lymphotoxin-alpha: LPGVGLTPSAAQTARQHPKMHLAHSTLKPAAHLIGDPSKQNSLLWRANTDRAFLQDGFSLSNNSLLVPTSGIYFVYSQVVFSGKAYSPKATSSPLYLAHEVQLFSSQYPFHVPLLSSQKMVYPGLQEPWLHSMYHGAAFQLTQGDQLSTHTDGIPHLVLSPSTVFFGAFAL
- number of CD1a+ LC in epidermis ([1]; LT-treated skin grafts, FIG. 10): clear decrease
